Results taken from patent US20100331297A1, “MODULATION OF PROTEIN TRAFFICKING” (FOLDRX PHARMACEUTICALS, INC., priority 2007, published 2010).

Assays:
[1] = molecular target: T1, ΔF508 CFTR (Homo sapiens, UniProt P13569, DEL508-508); assay: Potentiator activity, YFP halide (iodide) quenching assay in FRT cells expressing ΔF508 CFTR, 27° C. pre-incubation; assay type: cell-based; design: expressed in transfected cells; host or cells: Fischer rat thyroid (FRT) cells; details: FRT cells ΔF508 CFTR/YFP, 24 hours at 27° C., compound with forskolin 30 min
T1 sequence (P13569 with tags, fused parts or gaps DEL508-508): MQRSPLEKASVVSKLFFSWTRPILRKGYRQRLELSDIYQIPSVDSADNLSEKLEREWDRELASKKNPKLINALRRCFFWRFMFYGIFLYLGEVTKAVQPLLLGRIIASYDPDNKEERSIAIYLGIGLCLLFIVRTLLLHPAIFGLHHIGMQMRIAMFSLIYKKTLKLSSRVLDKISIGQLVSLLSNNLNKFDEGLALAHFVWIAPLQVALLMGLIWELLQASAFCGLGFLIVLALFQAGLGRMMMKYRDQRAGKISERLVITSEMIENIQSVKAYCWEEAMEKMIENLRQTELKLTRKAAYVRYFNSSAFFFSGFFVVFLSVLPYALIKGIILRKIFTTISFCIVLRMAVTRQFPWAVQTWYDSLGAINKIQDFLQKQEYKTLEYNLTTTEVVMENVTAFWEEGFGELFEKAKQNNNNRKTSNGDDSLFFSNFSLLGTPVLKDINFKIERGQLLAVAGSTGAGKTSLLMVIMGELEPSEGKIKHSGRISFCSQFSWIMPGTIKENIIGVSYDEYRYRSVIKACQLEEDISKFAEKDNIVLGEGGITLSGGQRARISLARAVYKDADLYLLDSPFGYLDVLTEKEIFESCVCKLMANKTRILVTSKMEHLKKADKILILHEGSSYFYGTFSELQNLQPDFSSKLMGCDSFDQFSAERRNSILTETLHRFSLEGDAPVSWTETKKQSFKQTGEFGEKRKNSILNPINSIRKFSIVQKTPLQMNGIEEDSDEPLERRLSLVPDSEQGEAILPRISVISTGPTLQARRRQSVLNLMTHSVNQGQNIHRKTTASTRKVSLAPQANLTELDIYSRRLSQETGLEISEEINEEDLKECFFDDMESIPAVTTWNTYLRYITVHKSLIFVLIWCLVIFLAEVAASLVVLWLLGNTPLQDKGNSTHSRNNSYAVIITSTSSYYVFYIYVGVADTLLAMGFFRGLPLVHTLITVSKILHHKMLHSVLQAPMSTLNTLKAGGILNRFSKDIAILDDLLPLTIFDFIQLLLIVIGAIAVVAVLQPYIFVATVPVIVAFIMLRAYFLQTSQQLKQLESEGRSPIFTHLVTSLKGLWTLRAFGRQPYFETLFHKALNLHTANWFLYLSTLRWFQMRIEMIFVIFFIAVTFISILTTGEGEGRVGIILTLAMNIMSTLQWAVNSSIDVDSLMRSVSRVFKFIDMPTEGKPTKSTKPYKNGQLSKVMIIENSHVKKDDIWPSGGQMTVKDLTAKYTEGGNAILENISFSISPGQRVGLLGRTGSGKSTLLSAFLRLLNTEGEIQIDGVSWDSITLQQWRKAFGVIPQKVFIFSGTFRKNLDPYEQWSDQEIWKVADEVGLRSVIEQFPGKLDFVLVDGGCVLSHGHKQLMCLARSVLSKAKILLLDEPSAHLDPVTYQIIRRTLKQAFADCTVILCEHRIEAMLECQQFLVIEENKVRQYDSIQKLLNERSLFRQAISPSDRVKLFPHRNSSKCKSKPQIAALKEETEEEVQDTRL
Method: Fisher rat thyroid (FRT) cells stably expressing ΔF508 CFTR and a halide-sensitive variant of yellow fluorescent protein (YFP) were seeded into microtiter plates and allowed to grow for 24 hours at 37° C. and 5% CO2, as described above. The medium was replaced with fresh medium and the cells were incubated for a further 24 hours at 27° C. and 5% CO2 to increase the level of mutant CFTR at the cell surface.
Compounds in DMSO solution were pre-diluted into phosphate-buffered saline solution (PBS) containing forskolin. Activity of CFTR was assayed by removing the medium, washing the cell monolayer with PBS, and then applying the compounds diluted in PBS containing forskolin. After 30 min of incubation at 37° C., the plates were placed in a fluorescence plate reader equipped with a reagent injector. After measuring an initial fluorescence value, iodide-containing buffer was injected and the decrease in fluorescence was followed at excitation and emission wavelengths of 485 and 530 nm, respectively.
Potentiator activity was calculated as follows. Normalized endpoint fluorescence was calculated by dividing the endpoint fluorescence after iodide injection by the initial fluorescence reading and multiplication by 100. Potentiator EC50 values were calculated by the same method as corrector EC50 values.

[2] = molecular target: T1, ΔF508 CFTR; assay: Corrector activity, YFP halide (iodide) quenching assay in FRT cells expressing ΔF508 CFTR; assay type: cell-based; design: expressed in transfected cells; host or cells: Fischer rat thyroid (FRT) cells; details: FRT cells ΔF508 CFTR/YFP, 24 hours with compound at 37° C., forskolin and genistein; read-out: Corrector EC50
Method: Fisher rat thyroid (FRT) cells stably expressing ΔF508 CFTR and a halide-sensitive variant of yellow fluorescent protein (YFP) were seeded into microtiter plates and allowed to grow for 24 hours at 37° C. and 5% CO2. See Pedemonte et al., J. Clin. Invest. […] Compounds in dimethylsulfoxide (DMSO) solution were pre-diluted into cell culture medium, the medium was removed from cells, and then fresh medium containing the compounds was applied. The cells were incubated for a further 24 hours at 37° C. and 5% CO2.
Activity of CFTR was assayed by removing the medium, washing the cell monolayer with phosphate-buffered saline solution (PBS), and then applying PBS containing forskolin and genistein. After 30 min incubation at 37° C., the plates were placed in a fluorescence plate reader equipped with a reagent injector.
Corrector activity was calculated as follows. Normalized endpoint fluorescence was calculated by dividing the endpoint fluorescence after iodide injection by the initial fluorescence reading and multiplication by 100. Corrector EC50 values were calculated from the activity vs. concentration data using a 4-parameter log fit. The bottom of the curve was constrained to zero activity (DMSO control) while the slope, EC50, and top of the curve were fitted to the data. The EC50 was determined as the concentration that corresponds to the inflection point of the fitted curve.

SMILES | EC50 [1] | EC50 [2]
CC(=O)N1CC(n2nc(-c3ccc(Cl)cc3)c3c(N)ncnc32)C1 [Compound No. 295, 1-{3-[4-Amino-3-(4-chloro-phenyl)-pyrazolo[3,4-d]pyrimidin-1-yl]-azetidin-1-yl}-ethanone] | > 15 µM | > 15 µM
CN1CC(n2nc(-c3ccc(Cl)cc3)c3c(N)ncnc32)C1 [Compound No. 296, 3-(4-Chloro-phenyl)-1-(1-methyl-azetidin-3-yl)-1H-pyrazolo[3,4-d]pyrimidin-4-ylamine] | > 15 µM | > 15 µM
CC(C)N1CC(n2nc(-c3ccc(Cl)cc3)c3c(N)ncnc32)C1 [Compound No. 304, 3-(4-Chloro-phenyl)-1-(1-isopropyl-azetidin-3-yl)-1H-pyrazolo[3,4-d]pyrimidin-4-ylamine] | > 15 µM | 5 to 10 µM
CCn1cc(-c2ccc(Cl)cc2)c2c(NS(C)(=O)=O)ncnc21 [Compound No. 305, N-[5-(4-Chloro-phenyl)-7-ethyl-7H-pyrrolo[2,3-d]pyrimidin-4-yl]-methanesulfonamide] | > 15 µM | > 15 µM
CC(C)(C)OC(=O)N1CC(n2nc(Sc3ccccc3)c3c(N)ncnc32)C1 [Compound No. 320, 3-(4-Amino-3-phenylsulfanyl-pyrazolo[3,4-d]pyrimidin-1-yl)-azetidine-1-carboxylic acid tert-butyl ester] | 2 to 5 µM | > 15 µM
CCn1cc(Sc2ccccc2)c2c(N)ncnc21 [Compound No. 333, 7-Ethyl-5-phenylsulfanyl-7H-pyrrolo[2,3-d]pyrimidin-4-ylamine] | < 2 µM | 2 to 5 µM
CC(C)(C)OC(=O)N1CC(n2nc(Oc3ccccc3)c3c(N)ncnc32)C1 [Compound No. 341, 3-(4-Amino-3-phenoxy-pyrazolo[3,4-d]pyrimidin-1-yl)-azetidine-1-carboxylic acid tert-butyl ester] | 5 to 10 µM | > 15 µM
CCOC(=O)N1CC(n2nc(Sc3cccc(Cl)c3)c3c(N)ncnc32)C1 [Compound No. 345, 3-[4-Amino-3-(3-chloro-phenylsulfanyl)-pyrazolo[3,4-d]pyrimidin-1-yl]-azetidine-1-carboxylic acid ethyl ester] | 2 to 5 µM | > 15 µM
CCn1nc(-c2ccc(Cl)cc2)c2c(N)ncnc21 [compound 67] | 2 to 5 µM | > 15 µM
Cc1ccc(-c2nn(C(C)(C)C)c3ncnc(NC(=O)c4ccc(F)cc4)c23)cc1 [compound 94] | > 15 µM | 5 to 10 µM
Cc1ccc(C(=O)Nc2ncnc3c2c(-c2ccc(C)cc2)nn3C(C)(C)C)cc1 [compound 95] | 2 to 5 µM | > 15 µM
Cc1ccc(-c2nn(C(C)(C)C)c3ncnc(NC(=O)c4ccccc4Cl)c23)cc1 [compound 99] | 2 to 5 µM | > 15 µM
Cc1cccc(-c2nn(C(C)(C)C)c3ncnc(N)c23)c1 [compound 104] | 2 to 5 µM | > 15 µM
CC(=O)Nc1ncnc2c1c(-c1ccc(F)cc1)nn2C(C)(C)C [compound 118, N-[1-tert-Butyl-3-(4-fluoro-phenyl)-1H-pyrazolo[3,4-d]pyrimidin-4-yl]-acetamide] | > 15 µM | > 15 µM
CC(C)(C)n1nc(-c2cccc(Oc3ccccc3)c2)c2c(N)ncnc21 [compound 132] | > 15 µM | > 15 µM
Cc1cccc(Oc2nn(C(C)(C)C)c3ncnc(N)c23)c1C [compound 167] | < 2 µM | > 15 µM
CCn1nc(-c2ccc(N=[N+]=[N-])cc2)c2c(N)ncnc21 [compound 170] | > 15 µM | 5 to 10 µM
CC(C)(C)n1nc(Oc2ccc(F)c(F)c2)c2c(N)ncnc21 [compound 174] | < 2 µM | > 15 µM
CC(C)(C)n1nc(Oc2ccc(F)c(Cl)c2)c2c(N)ncnc21 [compound 176] | < 2 µM | > 15 µM
Cc1ccc(Oc2nn(C(C)(C)C)c3ncnc(N)c23)cc1C [compound 177] | < 2 µM | > 15 µM
Cc1cc(C)cc(Oc2nn(C(C)(C)C)c3ncnc(N)c23)c1 [compound 180] | < 2 µM | 5 to 10 µM
CC(C)(C)n1nc(Oc2cccnc2)c2c(N)ncnc21 [compound 183] | > 15 µM | > 15 µM
CC(C)(C)n1nc(Oc2cccc(Oc3ccccc3)c2)c2c(N)ncnc21 [compound 189] | < 2 µM | > 15 µM
CC(C)(C)n1nc(S(=O)(=O)c2ccccc2)c2c(N)ncnc21 [compound 191, 3-Benzenesulfonyl-1-tert-butyl-1H-pyrazolo[3,4-d]pyrimidin-4-ylamine] | 5 to 10 µM | > 15 µM
CC(C)(C)n1nc(Oc2ccccc2F)c2c(N)ncnc21 [compound 197] | < 2 µM | 5 to 10 µM

Next, values leading:

EC50 [1] | EC50 [2] | SMILES
2 to 5 µM | > 15 µM | CC(C)(C)OC(=O)N1CC(n2nc(Cc3cccc4ccccc34)c3c(N)ncnc32)C1 [Compound No. 297, 3-(4-Amino-3-naphthalen-1-ylmethyl-pyrazolo[3,4-d]pyrimidin-1-yl)-azetidine-1-carboxylic acid tert-butyl ester]
< 2 µM | 5 to 10 µM | CC(C)(C)n1nc(-c2ccc(Cl)cc2)c2c(NC(=O)O[C@H]3CCOC3)ncnc21 [Compound No. 301, [1-tert-Butyl-3-(4-chloro-phenyl)-1H-pyrazolo[3,4-d]pyrimidin-4-yl]-carbamic acid tetrahydro-furan-3-yl ester]
< 2 µM | > 15 µM | CC(C)(C)n1nc(Oc2cccc(Cl)c2)c2c(NC(=O)c3ccccc3)ncnc21 [Compound No. 332, N-[1-tert-Butyl-3-(3-chloro-phenoxy)-1H-pyrazolo[3,4-d]pyrimidin-4-yl]-benzamide]
> 15 µM | > 15 µM | CCNC(=O)N1CC(n2nc(Sc3cccc(Cl)c3)c3c(N)ncnc32)C1 [Compound No. 346, 3-[4-Amino-3-(3-chloro-phenylsulfanyl)-pyrazolo[3,4-d]pyrimidin-1-yl]-azetidine-1-carboxylic acid ethylamide]
> 15 µM | < 2 µM | CN1CC[C@@H](n2nc(-c3ccc(Cl)cc3)c3c(N)ncnc32)C1 [Compound No. 356, 3-(4-Chloro-phenyl)-1-(1-methyl-pyrrolidin-3-yl)-1H-pyrazolo[3,4-d]pyrimidin-4-ylamine]
2 to 5 µM | > 15 µM | CC(C)(C)n1nc(-c2ccc3c(c2)OCO3)c2c(N)ncnc21 [compound 131]
< 2 µM | > 15 µM | CC(C)(C)n1nc(Oc2ccc(Cl)cc2)c2c(N)ncnc21 [compound 168]
< 2 µM | > 15 µM | CC(C)(C)n1nc(Sc2ccccc2)c2c(N)ncnc21 [compound 172]
> 15 µM | > 15 µM | CC(C)(C)n1nc([S+]([O-])c2ccccc2)c2c(N)ncnc21 (centres unmarked) [compound 173, 3-benzenesulfinyl-1-tert-butyl-1H-pyrazolo[3,4-d]pyrimidin-4-ylamine]
2 to 5 µM | > 15 µM | CC(C)(C)n1nc(Oc2cccc(F)c2F)c2c(N)ncnc21 [compound 178]
< 2 µM | > 15 µM | Cc1cc(Oc2nn(C(C)(C)C)c3ncnc(N)c23)ccc1F [compound 179]
< 2 µM | > 15 µM | Cc1ccccc1Oc1nn(C(C)(C)C)c2ncnc(N)c12 [compound 185]
> 15 µM | 5 to 10 µM | Nc1ncnc2c1c(-c1ccc(Cl)cc1)nn2C(=O)Oc1ccccc1 [compound 187]
> 15 µM | 5 to 10 µM | Nc1ncnc2c1c(-c1ccc(Cl)cc1)nn2C(=O)OCc1ccccc1 [compound 188]
> 15 µM | 5 to 10 µM | CC(C)(C)n1nc(Oc2cccc(-c3ccccc3)c2)c2c(N)ncnc21 [compound 190]
> 15 µM | > 15 µM | CC(C)(C)n1nc(Oc2cccc(OC(F)(F)F)c2)c2c(N)ncnc21 [compound 194]
> 15 µM | 5 to 10 µM | CC(C)(C)n1nc(Oc2cccc3cccnc23)c2c(N)ncnc21 [compound 195]
< 2 µM | 5 to 10 µM | CC(C)(C)n1nc(Oc2ccc(F)cc2)c2c(N)ncnc21 [compound 196]
